Measured values reported in patent US10258602B2 (Ocera Therapeutics, Inc., priority 2007, dated 2019).

Tested on: rat stomach fundus strips
Procedure: Fundus strips (approximately 0.4×1 cm) were cut from the stomach of adult male Wistar rats parallel to the circular muscle fibers. They were placed between two platinum ring electrodes, 1 cm apart (Radnoti, ADInstruments, USA) in 10 ml tissue baths containing Krebs solution bubbled with 5% CO2 in O2 and maintained at 37° C. Tissues were suspended under 1.5 g resting tension. Changes of tension were measured isometrically with force transducers and recorded with a PowerLab 8/30 data acquisition system (ADInstruments, USA). Tissues were allowed to equilibrate for 60 min during which time bath solutions were changed every 15 min.
EFS was achieved by applying 0.5 ms pulses, 5 Hz frequency, at a maximally effective voltage of 70 V. EFS was applied for 30 sec at 3 min intervals for a 30 min initial period. This initial period was separated by a 5 min interval with wash out of the bath solution. Then, a second period of stimulation was started. […] Responses to the agents were measured and expressed as % of the mean of three or four pre-drug responses to EFS. All compounds were dissolved at 1 mM in distilled water or MeOH, as stock solutions.

`CCCCCCCC(=O)OC[C@H](NC(=O)[C@H](CO)NC(=O)CN)C(=O)N[C@@H](Cc1ccccc1)C(=O)N[C@@H](CC(C)C)C(=O)N[C@@H](CO)C(=O)N1CCC[C@H]1C(=O)N[C@@H](CCC(=O)O)C(=O)N[C@@H](Cc1c[nH]cn1)C(=O)N[C@@H](CCC(N)=O)C(=O)N[C@@H](CCCNC(=N)N)C(=O)N[C@H](C(=O)N[C@@H](CCC(N)=O)C(=O)N[C@@H](CCC(N)=O)C(=O)N[C@@H](CCCNC(=N)N)C(=O)N[C@@H](CCCCN)C(=O)N[C@@H](CCC(=O)O)C(=O)N[C@@H](CO)C(=O)N[C@@H](CCCCN)C(=O)N[C@@H](CCCCN)C(=O)N1CCC[C@H]1C(=O)N1CCC[C@H]1C(=O)N[C@@H](C)C(=O)N[C@@H](CCCCN)C(=O)N[C@@H](CC(C)C)C(=O)N[C@@H](CCC(N)=O)C(=O)N1CCC[C@H]1C(=O)N[C@@H](CCCNC(=N)N)C(=O)O)C(C)C` [Ghrelin] showed an EC50 of 5 nM.
